Experiments:
Assay type in all cases: in vivo
[1] = tested on: pigweed (Amaranthus retroflexus); assay: Test A preemergence; conditions: Amaranthus retroflexus, pre-emergence, 240 h, 0 to 100 scale where 0 is no effect and 100 is complete control, read-out: Pigweed plant response rating
[2] = tested on: giant foxtail (Setaria faberii); assay: Test A preemergence; conditions: Setaria faberi, pre-emergence, 240 h, 0 to 100 scale where 0 is no effect and 100 is complete control, read-out: Foxtail, Giant plant response rating
How it was run: (§1)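 Treatment is preemergence as a directed soil spray after planting, or postemergence at the one- to two-leaf stage, with test chemical in a non-phytotoxic solvent mixture plus surfactant. Plants stay in the greenhouse about 10 d before visual injury scoring on a 0 to 100 scale versus untreated controls.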

[3] = tested on: ragweed (common ragweed, Ambrosia elatior); assay: Test A preemergence; conditions: Ambrosia artemisiifolia, pre-emergence, 240 h, 0 to 100 scale where 0 is no effect and 100 is complete control, read-out: Ragweed plant response rating
How it was run: as §1

[4] = tested on: ryegrass, Italian (Italian ryegrass, Lolium multiflorum); assay: Test A preemergence; conditions: Lolium multiflorum, pre-emergence, 240 h, 0 to 100 scale where 0 is no effect and 100 is complete control, read-out: Ryegrass, Italian plant response rating
How it was run: as §1

Kochia (Kochia scoparia) [5] = assay: Test A preemergence; conditions: Bassia scoparia, pre-emergence, 240 h, 0 to 100 scale where 0 is no effect and 100 is complete control, read-out: Kochia plant response rating
How it was run: as §1

[6] = tested on: barnyardgrass (Echinochloa crus-galli); assay: Test A preemergence; conditions: Echinochloa crus-galli, pre-emergence, 240 h, 0 to 100 scale where 0 is no effect and 100 is complete control, read-out: Barnyardgrass plant response rating
How it was run: as §1

rice (Oryra sativa) = assay: Test B flooded paddy test; conditions: Oryza sativa, 250 g ai/ha, Flood; 0 to 100 scale where 0 is no effect and 100 is complete control; read-out: Rice plant response rating
How it was run: (§2)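 Rating scale 0–100 (visual, vs untreated controls) after a 13–15 d greenhouse period; application to the flood layer, 3 cm above soil and maintained; plants at 2-leaf stage when treated.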

[7] = tested on: ducksalad (Heteranthera limosa); assay: Test B flooded paddy test; conditions: Heteranthera limosa, 250 g ai/ha, Flood; 0 to 100 scale where 0 is no effect and 100 is complete control; read-out: Ducksalad plant response rating
How it was run: as §2

[8] = tested on: sedge, umbrella (small-flower umbrella sedge, Cyperus difformis); assay: Test B flooded paddy test; conditions: Cyperus difformis, 250 g ai/ha, Flood; 0 to 100 scale where 0 is no effect and 100 is complete control; read-out: Sedge, Umbrella plant response rating
How it was run: as §2

[9] = tested on: barnyardgrass (Echinochloa crus-galli); assay: Test B flooded paddy test; conditions: Echinochloa crus-galli, 250 g ai/ha, Flood; 0 to 100 scale where 0 is no effect and 100 is complete control; read-out: Barnyardgrass plant response rating
How it was run: as §2

[10] = tested on: pigweed (Amaranthus retroflexus); assay: Test A postemergence; conditions: Amaranthus retroflexus, post-emergence, 240 h
How it was run: as §1

[11] = tested on: giant foxtail (Setaria faberii); assay: Test A postemergence; conditions: Setaria faberi, post-emergence, 240 h
How it was run: as §1

[12] = tested on: Galium (catchweed bedstraw, Galium aparine); assay: Test A postemergence; conditions: Galium, post-emergence, 240 h
How it was run: as §1

[13] = tested on: wheat (Triticum aestivum); assay: Test A postemergence; conditions: Triticum aestivum, post-emergence, 240 h
How it was run: as §1

[14] = tested on: ragweed (common ragweed, Ambrosia elatior); assay: Test A postemergence; conditions: Ambrosia artemisiifolia, post-emergence, 240 h
How it was run: as §1

[15] = tested on: ryegrass, Italian (Italian ryegrass, Lolium multiflorum); assay: Test A postemergence; conditions: Lolium multiflorum, post-emergence, 240 h
How it was run: as §1

corn (Zea mays) = assay: Test A postemergence; conditions: Zea mays, post-emergence, 240 h
How it was run: as §1

Kochia (Kochia scoparia) [16] = assay: Test A postemergence; conditions: Bassia scoparia, post-emergence, 240 h
How it was run: as §1

[17] = tested on: blackgrass (Alopecurus myosuroides); assay: Test A postemergence; conditions: Alopecurus myosuroides, post-emergence, 240 h
How it was run: as §1

[18] = tested on: barnyardgrass (Echinochloa crus-galli); assay: Test A postemergence; conditions: Echinochloa crus-galli, post-emergence, 240 h
How it was run: as §1

[19] = 125 g ai/ha, preemergence, approx. 10 d

CN1C[C@H](c2ccc(Cl)cc2)[C@@H](C(=O)Nc2ccc(F)c(F)c2F)C1=O [Compound 1144]
pest or weed control at 31 g/ha ([1]; 31 g ai/ha, Preemergence): 30% | pest or weed control at 125 g/ha [1, 19]: 80% | pest or weed control at 31 g/ha ([2]; 31 g ai/ha, Preemergence): 90% | pest or weed control at 125 g/ha [2, 19]: 90% | pest or weed control at 31 g/ha ([3]; 31 g ai/ha, Preemergence): 0% | pest or weed control at 125 g/ha [3, 19]: 20% | pest or weed control at 31 g/ha ([4]; 31 g ai/ha, Preemergence): 50% | pest or weed control at 125 g/ha [4, 19]: 50% | pest or weed control at 31 g/ha (Kochia (Kochia scoparia) [5]; 31 g ai/ha, Preemergence): 50% | pest or weed control at 125 g/ha (Kochia (Kochia scoparia) [5]; [19]): 60% | pest or weed control at 31 g/ha ([6]; 31 g ai/ha, Preemergence): 90% | pest or weed control at 125 g/ha [6, 19]: 90% | pest or weed control at 250 g/ha (rice (Oryra sativa)): 20% | pest or weed control at 250 g/ha [7]: 100% | pest or weed control at 250 g/ha [8]: 0% | pest or weed control at 250 g/ha [9]: 85% | pest or weed control at 125 g/ha ([10]; 125 g ai/ha, postemergence, visual injury vs untreated controls after approx. 10 d, 0 = no effect, 100 = complete control, read-out: Pigweed plant response rating (0 to 100 scale)): 30% | pest or weed control at 31 g/ha ([10]; Postemergence, 31 g ai/ha, visual injury after approx. 10 d, 0 to 100 scale, 0 no effect, 100 complete control, read-out: Plant response rating, Pigweed): 0% | pest or weed control at 125 g/ha ([11]; 125 g ai/ha, postemergence, visual injury on 0 to 100 scale (0 no effect, 100 complete control), approx. 10 d, read-out: Foxtail, Giant plant response rating): 90% | pest or weed control at 31 g/ha ([11]; Postemergence, 31 g ai/ha, visual injury after approx. 10 d, 0 to 100 scale, 0 no effect, 100 complete control, read-out: Plant response rating, Foxtail, Giant): 80% | pest or weed control at 125 g/ha ([12]; 125 g ai/ha, postemergence, visual injury on 0 to 100 scale (0 no effect, 100 complete control), approx. 10 d, read-out: Galium plant response rating): 40% | pest or weed control at 31 g/ha ([12]; Postemergence, 31 g ai/ha, visual injury after approx. 10 d, 0 to 100 scale, 0 no effect, 100 complete control, read-out: Plant response rating, Galium): 0% | plant injury at 125 g/ha ([13]; 125 g ai/ha, postemergence, visual injury vs untreated controls after approx. 10 d, 0 = no effect, 100 = complete control, read-out: Wheat plant response rating (0 to 100 scale)): 50% | plant injury at 31 g/ha ([13]; Postemergence, 31 g ai/ha, visual injury after approx. 10 d, 0 to 100 scale, 0 no effect, 100 complete control, read-out: Plant response rating, Wheat): 30% | pest or weed control at 125 g/ha ([14]; 125 g ai/ha, postemergence, visual injury vs untreated controls after approx. 10 d, 0 = no effect, 100 = complete control, read-out: Ragweed plant response rating (0 to 100 scale)): 70% | pest or weed control at 31 g/ha ([14]; Postemergence, 31 g ai/ha, visual injury after approx. 10 d, 0 to 100 scale, 0 no effect, 100 complete control, read-out: Plant response rating, Ragweed): 20% | pest or weed control at 125 g/ha ([15]; 125 g ai/ha, postemergence, visual injury vs untreated controls after approx. 10 d, 0 = no effect, 100 = complete control, read-out: Ryegrass, Italian plant response rating (0 to 100 scale)): 60% | pest or weed control at 31 g/ha ([15]; Postemergence, 31 g ai/ha, visual injury after approx. 10 d, 0 to 100 scale, 0 no effect, 100 complete control, read-out: Plant response rating, Ryegrass, Italian): 30% | plant injury at 125 g/ha (corn (Zea mays); 125 g ai/ha, postemergence, visual injury on 0 to 100 scale (0 no effect, 100 complete control), approx. 10 d, read-out: Corn plant response rating): 50% | Corn plant response rating (crop injury, 0 = no effect, 100 = complete kill) at 31 g/ha (corn (Zea mays); Postemergence, 31 g ai/ha, visual injury after approx. 10 d, 0 to 100 scale, 0 no effect, 100 complete control): 20% | pest or weed control at 125 g/ha (Kochia (Kochia scoparia) [16]; 125 g ai/ha, postemergence, visual injury on 0 to 100 scale (0 no effect, 100 complete control), approx. 10 d, read-out: Kochia plant response rating): 70% | pest or weed control at 31 g/ha (Kochia (Kochia scoparia) [16]; Postemergence, 31 g ai/ha, visual injury after approx. 10 d, 0 to 100 scale, 0 no effect, 100 complete control, read-out: Plant response rating, Kochia): 50% | pest or weed control at 125 g/ha ([17]; 125 g ai/ha, postemergence, visual injury on 0 to 100 scale (0 no effect, 100 complete control), approx. 10 d, read-out: Blackgrass plant response rating): 40% | pest or weed control at 31 g/ha ([17]; Postemergence, 31 g ai/ha, visual injury after approx. 10 d, 0 to 100 scale, 0 no effect, 100 complete control, read-out: Plant response rating, Blackgrass): 0% | pest or weed control at 125 g/ha ([18]; 125 g ai/ha, postemergence, visual injury on 0 to 100 scale (0 no effect, 100 complete control), approx. 10 d, read-out: Barnyardgrass plant response rating): 90% | pest or weed control at 31 g/ha ([18]; Postemergence, 31 g ai/ha, visual injury after approx. 10 d, 0 to 100 scale, 0 no effect, 100 complete control, read-out: Plant response rating, Barnyardgrass): 90%
